Earlier results as cited in patent publication US9138417B2, “Controlled release particles and production method thereof” (priority 2011, dated 2015).

| Compound | water solubility |
| --- | --- |
| CCCC1COC(Cn2cncn2)(c2ccc(Cl)cc2Cl)O1 (stereo not drawn) [Propiconazole, 1-[2-(2,4-dichlorophenyl)-4-n-propyl-1,3-dioxolane-2-ylmethyl]-1H-1,2,4-triazole] | 110 ppm |
| C=C(C)C(=O)O [Methacrylic acid] | 8.9 mass% |
| CCCCNC(=O)OCC#CI [IPBC, 3-iodo-2-propynylbutylcarbamate] | 150 ppm |
